Experimental data from ChEMBL document CHEMBL4304802, “Novel promising 4-anilinoquinazoline-based derivatives as multi-target RTKs inhibitors: Design, molecular docking, synthesis, and antitumor activities in vitro and vivo” (Bioorg Med Chem, 2019).
Each block holds one molecule with its values, some of them ahead of it. Calls of active or inactive are those of the source. The calls are words filed in the database; no cut-off is given here.

Legend:
DU-145 = assay: Antiproliferative activity against human DU145 cells incubated for 72 hrs by MTT assay; assay type: functional, cell-based; conditions: DU-145, 72 h
[1] = Cytotoxicity against human CCC-HPF1 cells assessed as decrease in cell viability incubated for 72 hrs by MTT assay; assay type: cell-based; conditions: CCC-HPF-1, 72 h
A549 = assay: Antiproliferative activity against human A549 cells incubated for 72 hrs by MTT assay; assay type: functional, cell-based; conditions: A549, 72 h
MCF7 = assay: Antiproliferative activity against human MCF7 cells incubated for 72 hrs by MTT assay; assay type: functional, cell-based; conditions: MCF7, 72 h
SH-SY5Y = assay: Antiproliferative activity against human SH-SY5Y cells incubated for 72 hrs by MTT assay; assay type: functional, cell-based
HepG2 [2] = assay: Antiproliferative activity against human HepG2 cells incubated for 72 hrs by MTT assay; assay type: functional, cell-based; conditions: HepG2, 72 h
HepG2 [3] = assay: Antitumor activity against human HepG2 cells xenografted in nude mouse assessed as inhibition of tumor at 40 mg/kg administrated daily for 30 days post implantation by vernier caliper analysis relative to control; assay type: functional; conditions: HepG2, 720 h
[4] = Toxicity in nude mouse xenografted with human HepG2 cells assessed as change in body weight at 40 mg/kg administrated daily for 50 days post implantation; assay type: organism-based; conditions: in vivo, 1200 h
[5] = Toxicity in nude mouse xenografted with human HepG2 cells assessed as change in body weight at 20 mg/kg administrated daily for 50 days post implantation; assay type: organism-based; conditions: in vivo, 1200 h
HepG2 [6] = assay: Induction of apoptosis in human HepG2 cells assessed as late apoptotic cells at IC50 incubated for 48 hrs by Annexin V-FITC and PI staining based flow cytometric analysis (reference value: 3.47%); assay type: functional
HepG2 [7] = assay: Induction of ROS generation in human HepG2 cells assessed as increase in green fluorescence incubated for 48 hrs by DCFH-DA staining based LSCM method; assay type: functional, cell-based
HepG2 [8] = assay: Induction of apoptosis in human HepG2 cells assessed as necrotic cells at IC50 incubated for 48 hrs by Annexin V-FITC and PI staining based flow cytometric analysis (reference value: 1.36%); assay type: functional
HepG2 [9] = assay: Antitumor activity against human HepG2 cells xenografted in nude mouse assessed as suppression of tumor volume at 20 to 40 mg/kg administrated daily for 50 days post implantation by vernier caliper analysis; assay type: functional, organism-based
HepG2 [10] = assay: Induction of apoptosis in human HepG2 cells assessed as late apoptotic cells at 2 times IC50 incubated for 48 hrs by Annexin V-FITC and PI staining based flow cytometric analysis (reference value: 3.47%); assay type: functional
HepG2 [11] = assay: Induction of apoptosis in human HepG2 cells assessed as cell detachment at 2 to 8 uM incubated for 48 hrs by optical microscopic method; assay type: functional, cell-based
HepG2 [12] = assay: Induction of apoptosis in human HepG2 cells assessed as necrotic cells at 0.5 times IC50 incubated for 48 hrs by Annexin V-FITC and PI staining based flow cytometric analysis (reference value: 1.36%); assay type: functional
HepG2 [13] = assay: Induction of apoptosis in human HepG2 cells assessed as early apoptotic cells at 2 times IC50 incubated for 48 hrs by Annexin V-FITC and PI staining based flow cytometric analysis (reference value: 1.75%); assay type: functional
HepG2 [14] = assay: Disruption of mitochondrial membrane potential in human HepG2 cells assessed as appearance of cell desquamation at 1.5 uM to 5 uM incubated for 48 hrs by JC-1 dye based LSCM analysis; assay type: functional
HepG2 [15] = assay: Induction of apoptosis in human HepG2 cells assessed as cell shrinkage at 2 to 8 uM incubated for 48 hrs by optical microscopic method; assay type: functional, cell-based
HepG2 [16] = assay: Induction of apoptosis in human HepG2 cells assessed as viable cells at IC50 incubated for 48 hrs by Annexin V-FITC and PI staining based flow cytometric analysis (reference value: 93.4%); assay type: functional
HepG2 [17] = assay: Induction of apoptosis in human HepG2 cells assessed as viable cells at 2 times IC50 incubated for 48 hrs by Annexin V-FITC and PI staining based flow cytometric analysis (reference value: 93.4%); assay type: functional
HepG2 [18] = assay: Induction of apoptosis in human HepG2 cells assessed as viable cells at 0.5 times IC50 incubated for 48 hrs by Annexin V-FITC and PI staining based flow cytometric analysis (reference value: 93.4%); assay type: functional
[19] = target: Vascular endothelial growth factor receptor 2 (Homo sapiens, UniProt P35968); assay: Inhibition of VEGFR2 (unknown origin) using TK substrate incubated for 60 mins by FRET assay
Sequence of Vascular endothelial growth factor receptor 2 (P35968 whole entry): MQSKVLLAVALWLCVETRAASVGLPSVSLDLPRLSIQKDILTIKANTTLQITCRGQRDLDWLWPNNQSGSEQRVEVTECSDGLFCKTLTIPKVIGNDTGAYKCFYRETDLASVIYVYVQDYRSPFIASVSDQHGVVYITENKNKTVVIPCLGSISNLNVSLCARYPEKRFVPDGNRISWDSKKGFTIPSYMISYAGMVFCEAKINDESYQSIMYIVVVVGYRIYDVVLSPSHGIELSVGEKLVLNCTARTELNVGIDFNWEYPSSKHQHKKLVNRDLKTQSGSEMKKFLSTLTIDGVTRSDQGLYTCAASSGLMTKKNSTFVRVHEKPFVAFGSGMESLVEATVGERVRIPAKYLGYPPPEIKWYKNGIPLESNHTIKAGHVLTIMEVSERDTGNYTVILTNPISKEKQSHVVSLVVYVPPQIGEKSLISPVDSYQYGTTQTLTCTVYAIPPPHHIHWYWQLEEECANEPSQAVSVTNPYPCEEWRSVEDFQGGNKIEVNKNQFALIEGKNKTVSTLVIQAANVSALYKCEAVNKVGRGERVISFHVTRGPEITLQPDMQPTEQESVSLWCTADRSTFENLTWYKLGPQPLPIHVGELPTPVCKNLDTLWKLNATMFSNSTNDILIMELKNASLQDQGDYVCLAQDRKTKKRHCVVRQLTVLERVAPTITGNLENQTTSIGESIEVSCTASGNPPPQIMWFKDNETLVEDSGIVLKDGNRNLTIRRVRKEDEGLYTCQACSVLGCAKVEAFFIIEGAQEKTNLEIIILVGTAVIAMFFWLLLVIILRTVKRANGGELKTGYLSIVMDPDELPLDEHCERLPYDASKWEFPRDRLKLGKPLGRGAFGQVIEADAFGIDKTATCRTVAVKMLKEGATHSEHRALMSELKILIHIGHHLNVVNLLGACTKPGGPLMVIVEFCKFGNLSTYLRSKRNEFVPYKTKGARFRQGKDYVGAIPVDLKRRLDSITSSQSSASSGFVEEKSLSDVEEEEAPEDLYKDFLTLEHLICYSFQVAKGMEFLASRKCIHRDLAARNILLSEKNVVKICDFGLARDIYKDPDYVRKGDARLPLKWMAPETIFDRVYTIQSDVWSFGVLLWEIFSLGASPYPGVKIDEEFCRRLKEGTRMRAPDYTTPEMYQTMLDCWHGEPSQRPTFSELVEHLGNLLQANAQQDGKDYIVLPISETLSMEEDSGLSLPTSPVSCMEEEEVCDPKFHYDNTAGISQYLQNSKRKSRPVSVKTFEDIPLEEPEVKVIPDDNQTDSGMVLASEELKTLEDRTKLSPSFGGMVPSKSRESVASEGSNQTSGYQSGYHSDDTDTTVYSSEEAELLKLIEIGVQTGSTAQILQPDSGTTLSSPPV

HepG2 [20] = assay: Induction of apoptosis in human HepG2 cells assessed as early apoptotic cells at IC50 incubated for 48 hrs by Annexin V-FITC and PI staining based flow cytometric analysis (reference value: 1.75%); assay type: functional
[21] = Toxicity in nude mouse xenografted with human HepG2 cells assessed as change in body weight at 20 to 30 mg/kg administrated daily for 50 days post implantation; assay type: organism-based; conditions: in vivo, 1200 h
[22] = target: Platelet-derived growth factor receptor beta (Homo sapiens, UniProt P09619); assay: Inhibition of PDGFRbeta (unknown origin) using TK substrate incubated for 60 mins by FRET assay
Sequence of Platelet-derived growth factor receptor beta (P09619 whole entry): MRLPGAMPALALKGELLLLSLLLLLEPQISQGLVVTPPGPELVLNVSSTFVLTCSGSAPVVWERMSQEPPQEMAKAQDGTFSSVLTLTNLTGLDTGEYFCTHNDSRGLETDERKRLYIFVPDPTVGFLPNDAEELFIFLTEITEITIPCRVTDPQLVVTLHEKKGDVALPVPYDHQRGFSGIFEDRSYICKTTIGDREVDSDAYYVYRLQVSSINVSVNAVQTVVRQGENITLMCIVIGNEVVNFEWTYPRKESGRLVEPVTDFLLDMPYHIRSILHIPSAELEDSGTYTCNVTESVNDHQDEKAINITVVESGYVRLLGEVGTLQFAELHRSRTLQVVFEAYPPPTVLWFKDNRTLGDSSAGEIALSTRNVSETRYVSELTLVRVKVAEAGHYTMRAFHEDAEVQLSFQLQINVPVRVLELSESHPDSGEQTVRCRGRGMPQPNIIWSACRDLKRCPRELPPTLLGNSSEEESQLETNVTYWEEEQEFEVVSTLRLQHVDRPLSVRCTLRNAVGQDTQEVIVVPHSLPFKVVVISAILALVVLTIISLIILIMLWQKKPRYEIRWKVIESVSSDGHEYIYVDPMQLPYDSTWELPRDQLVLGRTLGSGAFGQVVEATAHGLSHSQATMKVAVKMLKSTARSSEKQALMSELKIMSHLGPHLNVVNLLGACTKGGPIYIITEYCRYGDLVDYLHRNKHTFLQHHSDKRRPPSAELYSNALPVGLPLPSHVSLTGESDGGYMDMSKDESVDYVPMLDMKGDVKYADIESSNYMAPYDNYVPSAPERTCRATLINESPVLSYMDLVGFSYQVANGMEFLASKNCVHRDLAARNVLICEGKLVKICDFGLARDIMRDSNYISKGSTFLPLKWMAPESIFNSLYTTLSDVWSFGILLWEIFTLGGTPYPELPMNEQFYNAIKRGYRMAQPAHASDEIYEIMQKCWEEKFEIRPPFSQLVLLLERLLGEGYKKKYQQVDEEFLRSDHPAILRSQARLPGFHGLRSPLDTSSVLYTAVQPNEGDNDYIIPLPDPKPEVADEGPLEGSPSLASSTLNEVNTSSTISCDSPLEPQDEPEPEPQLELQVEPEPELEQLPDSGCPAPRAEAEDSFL

HepG2 [23] = assay: Induction of apoptosis in human HepG2 cells assessed as decrease in cell number at 2 to 8 uM incubated for 48 hrs by optical microscopic method; assay type: functional, cell-based
HepG2 [24] = assay: Induction of apoptosis in human HepG2 cells assessed as necrotic cells at 2 times IC50 incubated for 48 hrs by Annexin V-FITC and PI staining based flow cytometric analysis (reference value: 1.36%); assay type: functional
HepG2 [25] = assay: Disruption of mitochondrial membrane potential in human HepG2 cells assessed as cell shriveled at 1.5 uM to 5 uM incubated for 48 hrs by JC-1 dye based LSCM analysis; assay type: functional
HepG2 [26] = assay: Induction of apoptosis in human HepG2 cells assessed as late apoptotic cells at 0.5 times IC50 incubated for 48 hrs by Annexin V-FITC and PI staining based flow cytometric analysis (reference value: 3.47%); assay type: functional
HepG2 [27] = assay: Disruption of mitochondrial membrane potential in human HepG2 cells at 1.5 uM to 5 uM incubated for 48 hrs by JC-1 dye based fluorescence spectrophotometric analysis; assay type: functional, cell-based
[28] = target: Epidermal growth factor receptor (Homo sapiens, UniProt P00533); assay: Inhibition of EGFR (unknown origin) using TK substrate incubated for 60 mins by FRET assay
Sequence of Epidermal growth factor receptor (P00533 whole entry): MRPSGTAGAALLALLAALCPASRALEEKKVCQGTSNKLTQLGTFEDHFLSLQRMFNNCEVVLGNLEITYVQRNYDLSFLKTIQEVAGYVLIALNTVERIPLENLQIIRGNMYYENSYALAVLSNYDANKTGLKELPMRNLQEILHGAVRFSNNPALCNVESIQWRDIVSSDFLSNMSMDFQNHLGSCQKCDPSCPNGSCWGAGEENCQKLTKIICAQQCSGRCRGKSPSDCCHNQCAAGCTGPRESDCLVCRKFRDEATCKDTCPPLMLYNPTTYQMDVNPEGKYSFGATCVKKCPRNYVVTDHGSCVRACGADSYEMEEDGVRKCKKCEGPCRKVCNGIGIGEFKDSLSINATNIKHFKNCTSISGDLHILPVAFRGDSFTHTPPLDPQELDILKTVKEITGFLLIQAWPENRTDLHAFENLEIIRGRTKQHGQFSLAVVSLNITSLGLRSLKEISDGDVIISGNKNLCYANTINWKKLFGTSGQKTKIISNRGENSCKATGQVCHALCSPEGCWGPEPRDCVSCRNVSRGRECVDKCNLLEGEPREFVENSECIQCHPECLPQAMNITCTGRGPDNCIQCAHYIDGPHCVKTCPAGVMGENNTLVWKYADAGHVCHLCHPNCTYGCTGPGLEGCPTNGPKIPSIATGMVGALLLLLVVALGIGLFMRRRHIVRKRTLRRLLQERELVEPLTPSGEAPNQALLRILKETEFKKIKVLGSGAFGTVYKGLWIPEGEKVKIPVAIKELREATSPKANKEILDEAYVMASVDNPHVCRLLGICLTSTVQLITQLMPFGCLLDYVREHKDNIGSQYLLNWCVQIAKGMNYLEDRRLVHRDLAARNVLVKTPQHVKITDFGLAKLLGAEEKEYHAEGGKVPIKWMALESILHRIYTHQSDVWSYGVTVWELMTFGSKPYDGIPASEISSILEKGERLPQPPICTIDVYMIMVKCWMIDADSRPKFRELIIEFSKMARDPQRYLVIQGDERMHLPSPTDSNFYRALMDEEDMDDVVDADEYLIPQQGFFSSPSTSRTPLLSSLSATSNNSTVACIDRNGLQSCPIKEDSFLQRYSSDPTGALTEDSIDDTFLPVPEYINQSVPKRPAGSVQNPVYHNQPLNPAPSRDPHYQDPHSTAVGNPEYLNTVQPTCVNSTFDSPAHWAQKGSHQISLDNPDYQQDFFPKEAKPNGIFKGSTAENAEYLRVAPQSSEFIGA

HepG2 [29] = assay: Antitumor activity against human HepG2 cells xenografted in nude mouse assessed as inhibition of tumor growth administrated daily for 50 days post implantation by vernier caliper analysis; assay type: functional
HepG2 [30] = assay: Induction of apoptosis in human HepG2 cells assessed as early apoptotic cells at 0.5 times IC50 incubated for 48 hrs by Annexin V-FITC and PI staining based flow cytometric analysis (reference value: 1.75%); assay type: functional

SMILES: FC(F)(F)c1ccc(COc2ccccc2Nc2ncnc3cc4c(cc23)OCCOCCOCCO4)cc1
IC50 (DU-145): > 100 µM
IC50 (A549): > 100 µM
IC50 (MCF7): > 100 µM
IC50 (SH-SY5Y): > 100 µM
IC50 (HepG2 [2]): > 100 µM

SMILES: O=[N+]([O-])c1ccc(COc2cccc(Nc3ncnc4cc5c(cc34)OCCOCCOCCOCCO5)c2)cc1
IC50 (DU-145): 13.8 µM
IC50 [1]: > 100 µM
IC50 (A549): 19.8 µM
IC50 (MCF7): 6.41 µM
IC50 (SH-SY5Y): 8.42 µM
IC50 (HepG2 [2]): 9.82 µM

SMILES: O=[N+]([O-])c1ccc(COc2cccc(Nc3ncnc4cc5c(cc34)OCCOCCOCCO5)c2)cc1
IC50 (DU-145): > 100 µM
IC50 (A549): > 100 µM
IC50 (MCF7): > 100 µM
IC50 (SH-SY5Y): > 100 µM
IC50 (HepG2 [2]): > 100 µM

SMILES: CNC(=O)c1cc(Oc2ccc(NC(=O)Nc3ccc(Cl)c(C(F)(F)F)c3)cc2)ccn1 [SORAFENIB]
IC50 (DU-145): 83.7 µM
inhibition in vivo at 40 mg/kg (HepG2 [3]): 100%
Activity [4]: Toxic
IC50 (A549): 25.7 µM
Activity [5]: Non-Toxic
IC50 (MCF7): 38.2 µM
IC50 (SH-SY5Y): > 100 µM
IC50 (HepG2 [2]): 7.84 µM

SMILES: FC(F)(F)c1ccc(COc2ccc(Nc3ncnc4cc5c(cc34)OCCOCCOCCOCCO5)cc2)cc1
Activity (HepG2 [6]): 52.5%
IC50 (DU-145): 8.8 µM
Activity (HepG2 [7]): Dose-dependent effect
Activity (HepG2 [8]): 3.61%
Activity (HepG2 [9]): Active
inhibition in vivo at 40 mg/kg (HepG2 [3]): 100%
Activity (HepG2 [10]): 61.3%
Activity [4]: Toxic
Activity (HepG2 [11]): Active
Activity (HepG2 [12]): 1.01%
Activity (HepG2 [13]): 8.27%
IC50 [1]: 38.2 µM
Activity (HepG2 [14]): Active
Activity (HepG2 [15]): Active
Activity (HepG2 [16]): 35%
Activity (HepG2 [17]): 29.1%
Activity (HepG2 [18]): 71.3%
IC50 [19]: 0.0464 µM
Activity (HepG2 [20]): 8.89%
IC50 (A549): 8.56 µM
Activity [21]: Non-Toxic
IC50 (MCF7): 10 µM
IC50 (SH-SY5Y): 2.14 µM
IC50 [22]: 0.674 µM
Activity (HepG2 [23]): Active
Activity (HepG2 [24]): 1.35%
Activity (HepG2 [25]): Active
IC50 (HepG2 [2]): 3.34 µM
Activity (HepG2 [26]): 24%
Activity (HepG2 [27]): Active
IC50 [28]: 0.385 µM
inhibition (HepG2 [29]): Dose-dependent effect
Activity (HepG2 [30]): 3.72%

SMILES: O=[N+]([O-])c1ccc(COc2ccccc2Nc2ncnc3cc4c(cc23)OCCOCCOCCO4)cc1
IC50 (DU-145): > 100 µM
IC50 (A549): 29.9 µM
IC50 (MCF7): > 100 µM
IC50 (SH-SY5Y): 75.5 µM
IC50 (HepG2 [2]): 60.8 µM

SMILES: c1ccc(COc2ccccc2Nc2ncnc3cc4c(cc23)OCCOCCO4)cc1
IC50 (DU-145): > 100 µM
IC50 (A549): > 100 µM
IC50 (MCF7): > 100 µM
IC50 (SH-SY5Y): 93.7 µM
IC50 (HepG2 [2]): > 100 µM

SMILES: FC(F)(F)c1ccc(COc2cccc(Nc3ncnc4cc5c(cc34)OCCOCCOCCOCCO5)c2)cc1
IC50 (DU-145): 26.9 µM
IC50 [1]: 45.2 µM
IC50 (A549): 8.52 µM
IC50 (MCF7): 8.48 µM
IC50 (SH-SY5Y): 8.56 µM
IC50 (HepG2 [2]): 5.7 µM

Second part, led by results:

IC50 (DU-145): 2.76 µM
IC50 (A549): 24.9 µM
IC50 (MCF7): 17.6 µM
IC50 (SH-SY5Y): 20 µM
IC50 (HepG2 [2]): 34 µM
SMILES: FC(F)(F)c1ccc(COc2cccc(Nc3ncnc4cc5c(cc34)OCCOCCOCCO5)c2)cc1
IC50 [1]: 33.3 µM

IC50 (DU-145): > 100 µM
IC50 (A549): 7.59 µM
IC50 (MCF7): 40.9 µM
IC50 (SH-SY5Y): 68.4 µM
IC50 (HepG2 [2]): > 100 µM
SMILES: c1ccc(COc2cccc(Nc3ncnc4cc5c(cc34)OCCOCCO5)c2)cc1
IC50 [1]: > 100 µM

IC50 (DU-145): 8.8 µM
IC50 (A549): 29.5 µM
IC50 (MCF7): 12 µM
IC50 (SH-SY5Y): 5.25 µM
IC50 (HepG2 [2]): 11.9 µM
SMILES: c1ccc(COc2ccc(Nc3ncnc4cc5c(cc34)OCCOCCOCCOCCO5)cc2)cc1
IC50 [1]: 33.7 µM

IC50 (DU-145): > 100 µM
IC50 (A549): 8.62 µM
IC50 (MCF7): 39.7 µM
IC50 (SH-SY5Y): 55.2 µM
IC50 (HepG2 [2]): > 100 µM
SMILES: O=[N+]([O-])c1ccc(COc2ccc(Nc3ncnc4cc5c(cc34)OCCOCCO5)cc2)cc1
IC50 [1]: 47.1 µM
